Values of other authors as cited in patent publication US11737471B2, “Products having high efficacy omega-6/omega-3 balanced polyunsaturated fatty acids” (OMEGA FOODS, LLC, priority 2011, dated 2023).

Conditions: by some estimates

SMILES: CC/C=C\C/C=C\C/C=C\CCCCCCCC(=O)O [ALA, alpha-linolenic acid]
- conversion of ALA to DHA and EPA by the human body: less than 1%
